Values joined by “and” are separate entries in the source; they are usually repeats but may differ in a detail not shown here. Equal values may be shown once. ± gives the expanded uncertainty stated by the source.
How the values were obtained:
[1] = Molar enthalpy of transition or fusion; conditions: Crystal; DSC

## CNC(=O)c1cccnc1 [N-methylnicotinamide]
[1]
  Molar enthalpy of transition or fusion: 5.26 ± 0.12 kcal/mol
329.17 K, Crystal, Calculated from knudsen effusion weight loss
  vapor or sublimation pressure: 0.000104 ± 2e-05 kPa and 0.000105 ± 2e-05 kPa
331.27 K, Crystal, Calculated from knudsen effusion weight loss
  vapor or sublimation pressure: 0.000132 ± 2.1e-05 kPa and 0.000134 ± 2.1e-05 kPa and 0.000131 ± 2.1e-05 kPa
333.15 K, Crystal, Calculated from knudsen effusion weight loss
  vapor or sublimation pressure: 0.000162 ± 2.1e-05 kPa and 0.00016 ± 2.1e-05 kPa and 0.000164 ± 2.1e-05 kPa
335.17 K, Crystal, Calculated from knudsen effusion weight loss
  vapor or sublimation pressure: 0.000211 ± 2.1e-05 kPa and 0.000209 ± 2.1e-05 kPa and 0.000206 ± 2.1e-05 kPa
337.27 K, Crystal, Calculated from knudsen effusion weight loss
  vapor or sublimation pressure: 0.000261 ± 2.2e-05 kPa and 0.000259 ± 2.2e-05 kPa
339.15 K, Crystal, Calculated from knudsen effusion weight loss
  vapor or sublimation pressure: 0.000328 ± 2.3e-05 kPa and 0.00032 ± 2.3e-05 kPa
341.16 K, Crystal, Calculated from knudsen effusion weight loss
  vapor or sublimation pressure: 0.000414 ± 2.5e-05 kPa and 0.000404 ± 2.5e-05 kPa
343.27 K, Crystal, Calculated from knudsen effusion weight loss
  vapor or sublimation pressure: 0.00051 ± 2.7e-05 kPa and 0.000505 ± 2.7e-05 kPa and 0.000513 ± 2.7e-05 kPa
345.13 K, Crystal, Calculated from knudsen effusion weight loss
  vapor or sublimation pressure: 0.000619 ± 3e-05 kPa and 0.000613 ± 3e-05 kPa and 0.000627 ± 3e-05 kPa
347.16 K, Crystal, Calculated from knudsen effusion weight loss
  vapor or sublimation pressure: 0.000784 ± 3.4e-05 kPa and 0.000776 ± 3.4e-05 kPa and 0.000771 ± 3.4e-05 kPa
347.78 K, Crystal, Closed cell (Static) method
  vapor or sublimation pressure: 0.00085 ± 0.00012 kPa
349.27 K, Crystal, Calculated from knudsen effusion weight loss
  vapor or sublimation pressure: 0.000971 ± 4e-05 kPa and 0.000964 ± 4e-05 kPa and 0.000957 ± 3.9e-05 kPa
349.78 K, Crystal, Closed cell (Static) method
  vapor or sublimation pressure: 0.00105 ± 0.00013 kPa
351.69 K, Crystal, Closed cell (Static) method
  vapor or sublimation pressure: 0.00127 ± 0.00013 kPa
353.72 K, Crystal, Closed cell (Static) method
  vapor or sublimation pressure: 0.00157 ± 0.00014 kPa
355.6 K, Crystal, Closed cell (Static) method
  vapor or sublimation pressure: 0.00191 ± 0.00014 kPa
357.66 K, Crystal, Closed cell (Static) method
  vapor or sublimation pressure: 0.00232 ± 0.00015 kPa
359.51 K, Crystal, Closed cell (Static) method
  vapor or sublimation pressure: 0.0028 ± 0.00016 kPa
361.62 K, Crystal, Closed cell (Static) method
  vapor or sublimation pressure: 0.00347 ± 0.00018 kPa
363.5 K, Crystal, Closed cell (Static) method
  vapor or sublimation pressure: 0.00416 ± 0.0002 kPa
365.47 K, Crystal, Closed cell (Static) method
  vapor or sublimation pressure: 0.00502 ± 0.00023 kPa
367.44 K, Crystal, Closed cell (Static) method
  vapor or sublimation pressure: 0.00604 ± 0.00027 kPa
369.43 K, Crystal, Closed cell (Static) method
  vapor or sublimation pressure: 0.00721 ± 0.00031 kPa
371.36 K, Crystal, Closed cell (Static) method
  vapor or sublimation pressure: 0.00857 ± 0.00036 kPa
373.27 K, Crystal, Closed cell (Static) method
  vapor or sublimation pressure: 0.01023 ± 0.00042 kPa
375.33 K, Metastable liquid, Closed cell (Static) method
  vapor or sublimation pressure: 0.01316 ± 0.00052 kPa
375.36 K, Crystal, Closed cell (Static) method
  vapor or sublimation pressure: 0.01234 ± 0.0005 kPa
377.25 K, Metastable liquid, Closed cell (Static) method
  vapor or sublimation pressure: 0.01508 ± 0.00055 kPa
377.39 K, Crystal, Closed cell (Static) method
  vapor or sublimation pressure: 0.01496 ± 0.00055 kPa
379.31 K, Metastable liquid, Closed cell (Static) method
  vapor or sublimation pressure: 0.01731 ± 0.00058 kPa
381.26 K, Closed cell (Static) method, Liquid
  vapor or sublimation pressure: 0.01991 ± 0.00062 kPa
383.29 K, Closed cell (Static) method, Liquid
  vapor or sublimation pressure: 0.0228 ± 0.00067 kPa
385.21 K, Closed cell (Static) method, Liquid
  vapor or sublimation pressure: 0.02592 ± 0.00072 kPa
387.24 K, Closed cell (Static) method, Liquid
  vapor or sublimation pressure: 0.02975 ± 0.00077 kPa
389.16 K, Closed cell (Static) method, Liquid
  vapor or sublimation pressure: 0.03359 ± 0.00083 kPa
391.17 K, Closed cell (Static) method, Liquid
  vapor or sublimation pressure: 0.03824 ± 0.00091 kPa
393.09 K, Closed cell (Static) method, Liquid
  vapor or sublimation pressure: 0.04305 ± 0.00098 kPa
395.12 K, Closed cell (Static) method, Liquid
  vapor or sublimation pressure: 0.04915 ± 0.0011 kPa
397.12 K, Closed cell (Static) method, Liquid
  vapor or sublimation pressure: 0.05526 ± 0.0012 kPa
399.02 K, Closed cell (Static) method, Liquid
  vapor or sublimation pressure: 0.06212 ± 0.0013 kPa
401.07 K, Closed cell (Static) method, Liquid
  vapor or sublimation pressure: 0.07023 ± 0.0014 kPa
403.01 K, Closed cell (Static) method, Liquid
  vapor or sublimation pressure: 0.07943 ± 0.0015 kPa
404.99 K, Closed cell (Static) method, Liquid
  vapor or sublimation pressure: 0.08886 ± 0.0017 kPa
406.95 K, Closed cell (Static) method, Liquid
  vapor or sublimation pressure: 0.09977 ± 0.0019 kPa
408.92 K, Closed cell (Static) method, Liquid
  vapor or sublimation pressure: 0.1117 ± 0.002 kPa
410.86 K, Closed cell (Static) method, Liquid
  vapor or sublimation pressure: 0.1253 ± 0.0023 kPa
412.85 K, Closed cell (Static) method, Liquid
  vapor or sublimation pressure: 0.1398 ± 0.0021 kPa
414.81 K, Closed cell (Static) method, Liquid
  vapor or sublimation pressure: 0.1564 ± 0.0022 kPa
416.77 K, Closed cell (Static) method, Liquid
  vapor or sublimation pressure: 0.1735 ± 0.0024 kPa
418.72 K, Closed cell (Static) method, Liquid
  vapor or sublimation pressure: 0.194 ± 0.0025 kPa
420.68 K, Closed cell (Static) method, Liquid
  vapor or sublimation pressure: 0.2147 ± 0.0027 kPa
422.64 K, Closed cell (Static) method, Liquid
  vapor or sublimation pressure: 0.2384 ± 0.0029 kPa
424.61 K, Closed cell (Static) method, Liquid
  vapor or sublimation pressure: 0.2644 ± 0.0031 kPa
426.55 K, Closed cell (Static) method, Liquid
  vapor or sublimation pressure: 0.2952 ± 0.0034 kPa
Crystal, DTA
  Normal melting temperature: 106.0 ± 0.4 °C
